Experimental data taken from patent US20070128217A1 (priority 2003, published 2007).

What was measured:
[1] = tested on: control sera (pooled serum of ten healthy LUMC hospital workers; commercial negative donor pooled serum from the Dutch bloodbank); type: binding, human; set-up: Binding of Control serum LUMC to linear peptides / Binding of Control serum Blood-bank to linear peptides / Binding of Control serum LUMC to looped peptides / Binding of Control Serum Blood-Bank to Looped peptides / Binding of Control serum LUMC to linear peptides of the protein M of SARS-CoV Urbani / Binding of Control serum Blood-bank to linear peptides of the protein M of SARS-CoV Urbani / Binding of Control serum LUMC to looped peptides of the protein M of SARS-CoV Urbani / Binding of Control Serum Blood-Bank to Looped peptides of the protein M of SARS-CoV Urbani: unit not given here
[2] = tested on: antibodies in sera from SARS patients (sera 1a, 1b, 2, 6, 37, 62, London, SARS-yellow, SARS-green); type: binding, human; set-up: Binding of serum 6 to linear peptides of protein X1 of SARS-CoV Urbani / Binding of serum 37 to linear peptides of protein X1 of SARS-CoV Urbani / Binding of serum 6 to looped/cyclic peptide (PEPSCAN-ELISA) / Binding of serum 37 to looped/cyclic peptide (PEPSCAN-ELISA) / Binding of serum 37 to looped/cyclic peptides of protein X1 of SARS-CoV Urbani / Binding of serum 6 to linear peptides of protein X2 / Binding of serum 37 to linear peptides of protein X2 / Binding of serum 37 to looped/cyclic peptides of protein X2 of SARS-CoV Urbani / Binding of serum 6 to linear peptides of protein M of SARS-CoV Urbani / Binding of serum 37 to linear peptides of protein M of SARS-CoV Urbani / Binding of serum 6 to looped/cyclic peptides of protein M of SARS-CoV Urbani / Binding of serum 37 to looped/cyclic peptides of protein M of SARS-CoV Urbani / Binding of serum 6 to linear peptides of protein X3 of SARS-CoV Urbani / Binding of serum 37 to linear peptides of protein X3 of SARS-CoV Urbani / Binding of serum 37 to looped/cyclic peptides of protein X3 of SARS-CoV Urbani / Binding of serum 6 to linear peptides of protein X4 of SARS-CoV Urbani / Binding of serum 37 to linear peptides of protein X4 of SARS-CoV Urbani / Binding of serum 37 to looped/cyclic peptides of protein X4 of SARS-CoV Urbani / Binding of serum 6 to linear peptides of protein X5 of SARS-CoV Urbani / Binding of serum 37 to linear peptides of protein X5 of SARS-CoV Urbani / Binding of serum 37 to looped/cyclic peptides of protein X5 of SARS-CoV Urbani / Binding of serum 6 to linear peptides of protein N of SARS-CoV Urbani / Binding of serum 37 to linear peptides of protein N of SARS-CoV Urbani / Binding of serum 6 to linear peptide (PEPSCAN-ELISA) / Binding of serum 1a to looped/cyclic peptides of protein N of SARS-CoV Urbani / Binding of serum 1b to looped/cyclic peptides of protein N of SARS-CoV Urbani / Binding of serum 2 to looped/cyclic peptides of protein N of SARS-CoV Urbani / Binding of serum 6 to looped/cyclic peptides of protein N of SARS-CoV Urbani / Binding of serum 37 to looped/cyclic peptides of protein N of SARS-CoV Urbani / Binding of serum 62 to looped/cyclic peptides of protein N of SARS-CoV Urbani / Binding of serum London to looped/cyclic peptides of protein N of SARS-CoV Urbani / Binding of serum SARS-green to looped/cyclic peptides of protein N of SARS-CoV Urbani: unit not given here
[3] = tested on: recombinant human anti-SARS-CoV antibody 03-018; type: binding; set-up: Binding of antibody 03-018 to linear peptides of the N protein of SARS-CoV Urbani / Binding of antibody 03-018 to looped/cyclic peptides of the N protein of SARS-CoV Urbani: unit not given here
[4] = tested on: rabbit serum obtained by immunizing a rabbit with the SARS-CoV strain Frankfurt 1; type: binding; set-up: Binding of a rabbit serum to linear peptides / Binding of a rabbit serum to looped peptides / Rabbit serum linear peptides / Rabbit serum looped peptides / Binding of a rabbit serum to linear peptides of protein N of SARS-CoV Urbani (Rabbit serum linear peptides) / Binding of a rabbit serum to looped/cyclic peptides of protein N of SARS-CoV Urbani (Rabbit serum looped peptides): unit not given here

Sequence	Binding of serum 1a to linear peptides of protein N of SARS-CoV Urbani [2]	Binding of serum 1a to looped/cyclic peptides of protein N of SARS-CoV Urbani [2]	Binding of serum 1b to linear peptides of protein N of SARS-CoV Urbani [2]	Binding of serum 1b to looped/cyclic peptides of protein N of SARS-CoV Urbani [2]	Binding of serum 2 to linear peptides of protein N of SARS-CoV Urbani [2]	Binding of serum 2 to looped/cyclic peptides of protein N of SARS-CoV Urbani [2]	Binding of serum 6 to linear peptides of protein N of SARS-CoV Urbani [2]	Binding of serum 6 to looped/cyclic peptides of protein N of SARS-CoV Urbani [2]	Binding of serum 37 to linear peptides of protein N of SARS-CoV Urbani [2]	Binding of serum 37 to looped/cyclic peptides of protein N of SARS-CoV Urbani [2]	Binding of serum 62 to linear peptides of protein N of SARS-CoV Urbani [2]	Binding of serum 62 to looped/cyclic peptides of protein N of SARS-CoV Urbani [2]	Binding of serum London to linear peptides of protein N of SARS-CoV Urbani [2]	Binding of serum London to looped/cyclic peptides of protein N of SARS-CoV Urbani [2]	Binding of serum SARS-green to linear peptides of protein N of SARS-CoV Urbani [2]	Binding of serum SARS-green to looped/cyclic peptides of protein N of SARS-CoV Urbani [2]	Binding of serum SARS-yellow to linear peptides of protein N of SARS-CoV Urbani [2]	Binding of serum SARS-yellow to looped/cyclic peptides of protein N of SARS-CoV Urbani [2]	Binding of antibody 03-018 to linear peptides of the N protein of SARS-CoV Urbani [3]	Binding of antibody 03-018 to looped/cyclic peptides of the N protein of SARS-CoV Urbani [3]	other results
TYHGAIKLDDKDPQF	0.3	0.2	0.1	0.1	0.1	0.2	0.2	0.1	0.8	0.3	1.1	0.2	0.6	0.3	0.4	0.0	0.7	0.2	0.1	0.1	Control Serum Blood-Bank Looped peptides [1]: 0.4; Control serum Blood-bank linear peptides [1]: 0.8; Control serum LUMC linear peptides [1]: 0.7; Control serum LUMC looped peptides [1]: 0.4; Binding of a rabbit serum to linear peptides of protein N of SARS-CoV Urbani (Rabbit serum linear peptides) [4]: 0.1; Binding of a rabbit serum to looped/cyclic peptides of protein N of SARS-CoV Urbani (Rabbit serum looped peptides) [4]: 0.2
VATEGALNTPKDHIG	0.3	0.3	0.1	0.2	0.2	0.3	0.2	0.2	0.7	0.4	1.1	0.3	0.7	0.3	0.5	0.2	0.6	0.2	0.2	0.2	Binding of Control Serum Blood-Bank to Looped peptides [1]: 0.5; Binding of Control serum Blood-bank to linear peptides [1]: 0.9; Binding of Control serum LUMC to linear peptides [1]: 0.9; Binding of Control serum LUMC to looped peptides [1]: 0.5; Binding of a rabbit serum to linear peptides of protein N of SARS-CoV Urbani (Rabbit serum linear peptides) [4]: 0.2; Binding of a rabbit serum to looped/cyclic peptides of protein N of SARS-CoV Urbani (Rabbit serum looped peptides) [4]: 0.0
VILLNKHIDAYKTFP	0.2	0.3	0.1	0.1	0.2	0.3	0.2	0.2	0.7	0.5	0.7	0.4	0.5	0.4	0.4	0.2	0.5	0.3	0.1	0.2	Control Serum Blood-Bank Looped peptides [1]: 0.5; Control serum Blood-bank linear peptides [1]: 0.7; Control serum LUMC linear peptides [1]: 0.8; Control serum LUMC looped peptides [1]: 0.4; Binding of a rabbit serum to linear peptides of protein N of SARS-CoV Urbani (Rabbit serum linear peptides) [4]: 0.1; Binding of a rabbit serum to looped/cyclic peptides of protein N of SARS-CoV Urbani (Rabbit serum looped peptides) [4]: 0.4
